Measurements as given in patent US9902739B2, “Small molecule inhibitors of G protein coupled receptor 6 kinases polypeptides” (Mayo Foundation for Medical Education and Research, priority 2014, dated 2018).

Target: T1, GRK6, recombinant full-length GST-tagged human protein (Homo sapiens, UniProt P43250)
T1 construct: Enzyme: 20 nM GRK6, recombinant full-length GST-tagged human protein; GST
Test: GRK6 assay, IC50 determination (8-point concentration-response)
Format: biochemical
Description: The following assay conditions were used.
Buffer: 50 mM TRIS-HCl, pH 7.5, 5 mM MgCl2, 2 mM DTT, 0.01% Triton X-100, 10 μM Na3VO4, 10 μM b-GP, 1% DMSO
Enzyme: 20 nM GRK6, recombinant full-length GST-tagged human protein
Peptide substrate (Peptide 216): 1 μM
One hundred two compounds (1-1-1-102) were further characterized by determining IC50 values in a GRK6 assay. This screen has been previously described in WO 2013/063458, which is incorporated by reference in its entirety herein. Briefly, the following activities were performed: 8-point concentration-response determinations in singlicate wells (top concentration=60 μM, 3-fold dilution steps); Repeat tests for QC failed or inconclusive compounds; and Repeat tests (titrate down) for compounds with >50% inhibition at all tested concentrations.
Twelve compounds (2-1-2-12) were further characterized by determining the IC50 values in a GRK6 assay. This screen has been previously described in WO 2013/063458, which is incorporated by reference in its entirety herein. Specific activities were performed as described above (Example 18).
Thirty-six compounds (3-1-3-36) were further characterized by determining the IC50 values in a GRK6 assay. This screen has been previously described in WO 2013/063458, which is incorporated by reference in its entirety herein. Specific activities were performed as described above (Example 18).
Fifty-four compounds (4-1-4-54) were further characterized by determining the IC50 values in a GRK6 assay. This screen has been previously described in WO 2013/063458, which is incorporated by reference in its entirety herein. Specific activities were performed as described above (Example 18).

[1] = Series 3 (Table 13), conditions as Example 18
[2] = Series 4 (Table 14), conditions as Example 18
[3] = Series 1 (Table 11), 20 nM GRK6, ATP 12 μM (Km), Peptide 216 1 μM, incubation 7 h
[4] = Series 2 (Table 12), conditions as Example 18

T1 sequence (P43250 whole entry): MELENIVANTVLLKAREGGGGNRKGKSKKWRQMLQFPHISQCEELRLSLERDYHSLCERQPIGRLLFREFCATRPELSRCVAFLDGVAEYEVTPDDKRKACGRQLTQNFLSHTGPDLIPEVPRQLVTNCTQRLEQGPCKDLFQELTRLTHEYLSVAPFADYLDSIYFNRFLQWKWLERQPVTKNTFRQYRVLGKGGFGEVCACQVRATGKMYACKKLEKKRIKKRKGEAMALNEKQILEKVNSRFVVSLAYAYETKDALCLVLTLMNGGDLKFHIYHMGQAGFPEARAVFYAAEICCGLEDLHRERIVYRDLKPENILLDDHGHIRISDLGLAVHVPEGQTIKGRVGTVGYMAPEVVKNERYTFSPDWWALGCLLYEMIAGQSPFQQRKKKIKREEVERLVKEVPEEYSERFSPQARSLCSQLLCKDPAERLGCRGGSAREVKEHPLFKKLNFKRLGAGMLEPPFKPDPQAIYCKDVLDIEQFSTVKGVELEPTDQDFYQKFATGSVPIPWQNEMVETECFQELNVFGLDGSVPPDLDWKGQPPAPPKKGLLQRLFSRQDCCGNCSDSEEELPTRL

Structure (SMILES)	IC50 [3] [nM]	further results
c1ccc2cc(-c3ccc(-c4nnc(SCc5nnn[nH]5)[nH]4)o3)ccc2c1 [Compound 3-1]		IC50 [1]: 442 nM
CC(C)(C)C(=O)Nc1ncccc1-c1nnc(SCC(=O)O)[nH]1 [Compound 4-47]		IC50 [2]: > 64000 nM
O=C(O)CSc1nnc(-c2ccc(Br)o2)[nH]1 [Compound 1-97]	3330	
COc1ccc2cc(-c3cc(SCC(=O)O)n[nH]3)ccc2c1 [Compound 2-10]		IC50 [4]: 1470 nM
O=C(O)CSc1nnc(-c2ccc(-c3cccc(O)c3)o2)[nH]1 [Compound 1-62]	636	
O=C(O)CSc1nnc(-c2ccc(-c3cccc(OC(F)(F)F)c3)o2)[nH]1 [Compound 1-21]	265	
Cc1csc2sc(-c3nnc(SCC(=O)O)[nH]3)c(C)c12 [Compound 4-29]		IC50 [2]: 27300 nM
COc1ccc(-c2ccc(-c3nnc(SCC(=O)O)[nH]3)o2)cc1 [Compound 1-81]	1210	
CCc1n[nH]cc1-c1nnc(SCC(=O)O)[nH]1 [Compound 4-19]		IC50 [2]: 8960 nM
CC(=O)c1cccc(-c2ccc(-c3nnc(SCc4nnn[nH]4)[nH]3)o2)c1 [Compound 3-15]		IC50 [1]: 2480 nM
COc1ccc2cc(-c3oc(-c4nnc(SCC(=O)O)[nH]4)cc3Br)ccc2c1 [Compound 1-49]	458	
CN(C)c1ncc(-c2nnc(SCC(=O)O)[nH]2)cn1 [Compound 4-17]		IC50 [2]: 7100 nM
O=C(O)CSc1nnc(-c2ccc(-c3cccc(OCc4ccc(Cl)c(Cl)c4)c3)o2)[nH]1 [Compound 1-40]	367	
COc1ccc2cc(C#Cc3ccc(-c4nnc(SCC(=O)O)[nH]4)o3)ccc2c1 [Compound 1-11]	187	
NC(=O)Cn1cc(-c2nnc(SCC(=O)O)[nH]2)c2ccccc21 [Compound 4-39]		IC50 [2]: > 100000 nM
O=C(O)CSc1nnc(-c2ccc(-c3cccc(OCc4ccc(OC(F)(F)F)c(Cl)c4)c3)o2)[nH]1 [Compound 1-84]	1440	
COc1cc(Cl)cc(-c2ccc(-c3cc(SCC(=O)O)n[nH]3)o2)c1 [Compound 2-1]		IC50 [4]: 309 nM
O=C(O)CSc1nnc(-c2[nH]ncc2Br)[nH]1 [Compound 4-23]		IC50 [2]: 12300 nM
O=C(O)CSc1nnc(-c2cnc3ccccc3c2)[nH]1 [Compound 4-4]		IC50 [2]: 1120 nM
O=C(O)CSc1nnc(-c2ccc(Oc3ccccc3)nc2)[nH]1 [Compound 4-20]		IC50 [2]: 9210 nM
O=C(O)CSc1nnc(-c2ccc(-c3cccc(OCc4ccc(Cl)c(C(F)(F)F)c4)c3)o2)[nH]1 [Compound 1-58]	616	
Cc1nc(C)c(-c2nnc(SCC(=O)O)[nH]2)s1 [Compound 4-43]		IC50 [2]: > 100000 nM
O=C(O)CSc1nnc(-c2ccc(-c3ccc(Br)cc3)o2)[nH]1 [Compound 1-68]	813	

Structure (SMILES)	IC50 [3] [nM]	further results
COc1cc(Cl)cc(-c2cc(-c3nnc(SCc4nnn[nH]4)[nH]3)cc([N+](=O)[O-])c2)c1 [Compound 3-7]		IC50 [1]: 1210 nM
COc1ccc(/C=C/c2ccc(-c3nnc(SCC(=O)O)[nH]3)o2)cc1 [Compound 1-53]	514	
Fc1cccc(-c2ccc(-c3nnc(SCc4nnn[nH]4)[nH]3)o2)c1 [Compound 3-27]		IC50 [1]: 5630 nM
Cn1ncc2ccc(-c3ccc(-c4nnc(SCC(=O)O)[nH]4)o3)cc21 [Compound 1-63, 2-((5-(5-(1-methyl-1H-indazol-6-yl)furan-2-yl)-4H-1,2,4-triazol-3-yl)thio)acetic acid]	699	
O=C(O)CSc1nnc(-c2ccc(-c3ccc([N+](=O)[O-])cc3)o2)[nH]1 [Compound 1-82]	1310	
N#Cc1cccc(COc2cccc(-c3ccc(-c4nnc(SCC(=O)O)[nH]4)o3)c2)c1 [Compound 1-6]	162	
O=C(O)CSc1nnc(-c2ccc(-c3ccc(Cl)nc3)o2)[nH]1 [Compound 1-91]	2090	
Cn1ccc2ccc(-c3ccc(-c4nnc(SCC(=O)O)[nH]4)o3)cc21 [Compound 1-14]	216	
COc1ccc2cc(-c3oc(-c4nnc(SCC(=O)O)[nH]4)cc3C#CCO)ccc2c1 [Compound 1-31]	324	
Fc1cccc(-c2ccc(-c3nnc(SCc4nnn[nH]4)[nH]3)o2)c1F [Compound 3-26]		IC50 [1]: 5520 nM
O=C(O)CSc1nnc(-c2ccc(-c3ccc(C(=O)NC4CC4)cc3)o2)[nH]1 [Compound 1-75]	1050	
O=C(O)CSc1nnc(-c2ccc(-c3ccccn3)s2)[nH]1 [Compound 4-16]		IC50 [2]: 6540 nM
O=C(O)CSc1nnc(-c2ccc(-c3ccc4cc[nH]c4c3)o2)[nH]1 [Compound 1-46]	421	
Fc1cc(-c2ccc(-c3nnc(SCc4nnn[nH]4)[nH]3)o2)cc(F)c1F [Compound 3-24]		IC50 [1]: 3830 nM
Cn1ccc2cc(-c3ccc(-c4nnc(SCC(=O)O)[nH]4)o3)ccc21 [Compound 1-61]	635	
O=C(O)CSc1nnc(-c2ccc(N3CCOCC3)nc2)[nH]1 [Compound 4-22]		IC50 [2]: 11300 nM
CCOc1ccc2ccc(-c3ccc(-c4nnc(SCC(=O)O)[nH]4)o3)cc2c1 [Compound 1-38]	362	
O=C(O)CSc1nnc(-c2ccc(-c3ccc4[nH]c5ccccc5c4c3)o2)[nH]1 [Compound 1-3]	131	
O=C(O)CSc1nnc(-c2ccc(-c3cccc([N+](=O)[O-])c3)o2)[nH]1 [Compound 1-59]	617	
O=C(O)CSc1nnc(-c2ccc(-c3cccc(OCc4cccc(OC(F)F)c4)c3)o2)[nH]1 [Compound 1-13]	195	
O=C(O)CSc1nnc(-c2ccc(-c3cc(O)cc(F)c3)o2)[nH]1 [Compound 1-39]	364	
O=C(O)CSc1nnc(-c2cnc3cc(OCc4ccccc4)ccc3c2)[nH]1 [Compound 4-2]		IC50 [2]: 780 nM
COc1cc(Cl)cc(-c2ccc(-c3cc(SCC(=O)O)n[nH]3)s2)c1 [Compound 2-4]		IC50 [4]: 608 nM

Structure (SMILES)	IC50 [3] [nM]	further results
O=C(O)CSc1nnc(-c2ccc(-c3ccc(Cl)s3)o2)[nH]1 [Compound 1-76, 2-((5-(5-(5-chlorothiophen-2-yl)furan-2-yl)-4H-1,2,4-triazol-3-yl)thio)acetic acid]	1120	
O=C(O)CSc1nnc(-c2ccc(-c3ccc4sccc4c3)o2)[nH]1 [Compound 1-26]	285	
O=C(O)CSc1nnc(-c2ccc(-c3cccc(Cl)c3)o2)[nH]1 [Compound 1-36]	359	
COc1cc(-c2ccc(-c3nnc(SCc4nnn[nH]4)[nH]3)o2)cc(C(F)(F)F)c1 [Compound 3-13]		IC50 [1]: 2160 nM
N#Cc1cccc(-c2ccc(-c3nnc(SCc4nnn[nH]4)[nH]3)o2)c1 [Compound 3-20]		IC50 [1]: 3620 nM
O=C(O)CSc1nnc(-c2ccc(-c3ccc4[nH]ccc4c3)o2)[nH]1 [Compound 1-35]	347	
O=C(O)CSc1nnc(-c2ccc(-c3cccc(OCc4cccc(C(F)(F)F)c4)c3)o2)[nH]1 [Compound 1-52]	505	
O=C(O)CSc1nnc(-c2ccc(-c3cccc4[nH]ccc34)o2)[nH]1 [Compound 1-70]	860	
O=C(O)CSc1nnc(-c2c[nH]c3ccccc23)[nH]1 [Compound 4-49]		IC50 [2]: > 100000 nM
CNS(=O)(=O)c1cccc(-c2ccc(-c3nnc(SCc4nnn[nH]4)[nH]3)o2)c1 [Compound 3-30]		IC50 [1]: 7160 nM
Cc1ncc(-c2nnc(SCC(=O)O)[nH]2)cn1 [Compound 4-30]		IC50 [2]: 27800 nM
Fc1cc(F)cc(-c2ccc(-c3nnc(SCc4nnn[nH]4)[nH]3)o2)c1 [Compound 3-18]		IC50 [1]: 3310 nM
O=C(O)CSc1nnc(-c2ccc3ccccc3n2)[nH]1 [Compound 4-25]		IC50 [2]: 13000 nM
NS(=O)(=O)c1cccc(-c2ccc(-c3nnc(SCC(=O)O)[nH]3)o2)c1 [Compound 1-45]	413	
COc1ccc2cc(C#Cc3ccc(-c4cc(SCC(=O)O)n[nH]4)o3)ccc2c1 [Compound 2-5]		IC50 [4]: 626 nM
O=C(O)CSc1nnc(-c2ccc(-c3cc4cc(F)ccc4[nH]3)o2)[nH]1 [Compound 1-57]	608	
CC(C)CCn1ccc(-c2ccc(-c3nnc(SCC(=O)O)[nH]3)o2)n1 [Compound 1-78]	1170	
CCc1nc(C)c(-c2nnc(SCC(=O)O)[nH]2)[nH]1 [Compound 4-36]		IC50 [2]: 82700 nM
Cn1c2ccccc2c2ccc(-c3ccc(-c4cc(SCC(=O)O)n[nH]4)o3)cc21 [Compound 2-8]		IC50 [4]: 1250 nM
CCOc1ccc(-c2ccc(-c3nnc(SCC(=O)O)[nH]3)o2)cc1Cl [Compound 1-51]	497	
N#Cc1ccc(COc2cccc(-c3ccc(-c4nnc(SCC(=O)O)[nH]4)o3)c2)cc1 [Compound 1-7]	167	
O=C(O)CSc1cc(-c2ccccc2)[nH]n1 [Compound 2-12, 2-[(5-phenyl-1H-pyrazol-3-yl)sulfanyl]acetic acid]		IC50 [4]: 18300 nM
